# According to PMC9671377, “Label-free affinity screening, design and synthesis of inhibitors targeting the Mycobacterium tuberculosis L-alanine dehydrogenase” (PLOS ONE, 2022):
# Key:
# [1] = molecular target: L225A AlaDH (Mycobacterium tuberculosis, UniProt P9WQB1, L225A); type: biochemical
# [2] = molecular target: L249A AlaDH (Mycobacterium tuberculosis, UniProt P9WQB1, L249A); type: biochemical
smiles,measurement,setting,value
CC(C)CNc1ncnc2c1ncn2[C@@H]1O[C@H](CO)[C@@H](O)[C@H]1O [N6-isobutyl adenosine],vi of L225A AlaDH after adding compound,[1],0.821 x10^-3 [NADH]OD340/min
same,vi of L249A AlaDH after adding compound,[2],1.007 x10^-3 [NADH]OD340/min
